Entries after “also recorded” stand apart in the source; their conditions may differ.
Columns and labels:
[1] = test system: diabetic and non-diabetic mice; experiment: Femoral artery wire injury, neointima formation / intimal thickening; type: in vivo
Protocol: FIG. 1. Neointimal hyperplasia is increased in an mTOR-independent manner in diabetic mice. Femoral artery wire injury was performed in the mice in diabetic mice (DM) and non-diabetic mice […] and neointima formation was assessed at 14 days post-injury. […] Data represent the mean±SEM. † indicates p<0.05 by ANOVA with Tukey's HSD.
FIG. 10. Diabetes induces an increase in miR-221/222 that increases intimal thickening. Intimal thickening was measured in the wire injured femoral arteries of diabetic and non-diabetic mice receiving a Pluronic gel containing either control oligonucleotide (NT) or 2′OMe-miR-222 (AS) after 14 days. Data represent the mean±SEM and † indicates p<0.05 by ANOVA using Tukey's HSD.
FIG. 14. […] Mean intima:media ratios of ND and DM mice following femoral artery wire injury and implantation of a Pluronic-F 127 gel containing either vehicle or rapamycin (100 μg) with and without administration of the ERK pathway inhibitor, U0126 (7.5 mg/kg/d). Bars indicate p<0.05 by ANOVA.

[2] = test system: miR-221/222; experiment: miR-221 and miR-222 levels in injured femoral arteries by quantitative real-time PCR; type: in vivo; conditions: diabetic mice; Pluronic gel on injured femoral artery; 7 days
Protocol: FIG. 7. Diabetes induces an increase in miR-221/222 levels in arteries. Total RNA was prepared from injured femoral arteries of diabetic and non-diabetic mice receiving a Pluronic gel containing either control oligonucleotide (NT) or 2′OMe-miR-222 (AS) for 7 days. Levels of miR-221 and miR-222 were measured using quantitative real-time PCR with U6 as a loading control. Data is normalized to the ND. Data represent the mean±SEM and † indicates p<0.05 by ANOVA using Tukey's HSD.

[3] = test system: p27^Kip1; experiment: p27Kip1 protein ELISA in injured femoral arteries; type: in vivo; conditions: diabetic mice; Pluronic gel on injured femoral artery; 7 days
Protocol: FIG. 9. Diabetes induces an increase in miR-221/222 that reduces p27^Kip1 levels in arteries Protein lysates were prepared from injured femoral arteries of diabetic and non-diabetic mice receiving a Pluronic gel containing either control oligonucleotide (NT) or 2′OMe-miR-222 (AS) after 7 days. Levels of p27^Kip1 protein levels were measured using an ELISA kit. Data is normalized to the ND. Data represent the mean±SEM and † indicates p<0.05 by ANOVA using Tukey's HSD.

[4] = test system: miR-221/222; experiment: miR-221/222 levels in VSMCs incubated with AMPK agonist; type: cell-based; conditions: VSMCs from diabetic mice; 3 h incubation
Protocol: FIG. 11. The increase in miR-221/222 in VSMCs from the DM mice is reversed by AMPK activation. miR-221/222 levels were measured in VSMCs from non-diabetic and diabetic mice incubated with vehicle (Con) and the AMPK agonist, Metformin (Met) for 3 h. Data represent the mean±SEM.
FIG. 12. The increase in miR-221/222 in VSMCs from the DM mice is reversed by AMPK activation. miR-221/222 levels were measured in VSMCs from non-diabetic and diabetic mice incubated with vehicle (Con) and the AMPK agonist, AICAR for 3 h. Data represent the mean±SEM.

[5] = test system: p27^Kip1 mRNA; experiment: Half-life of p27Kip1 mRNA in serum-stimulated VSMCs; type: cell-based; conditions: VSMCs from diabetic mice stimulated with serum
Protocol: FIG. 4. Increased ERK activation promotes loss of p27^Kip1 in diabetic mice. A) The ratio of phosphorylated (active) ERK to total ERK in the aortae of non-diabetic (ND) mice and diabetic mice receiving either vehicle (DM) or the ERK pathway inhibitor (DM+EI) U0126, ip, 7.5 mg/kg/d for 3 days). p27^Kip1 protein (B) and mRNA (C) levels in the same mice as in A. D and E) The half-life of p27^Kip1 mRNA in VSMCs from DM and ND mice stimulated with serum with and without the ERK pathway inhibitor PD98059 (D,PD) or siRNA targeting ERK (E, ERK siRNA). † indicate p<0.05 by ANOVA (B and D) or Student's t-test (E and F).

[6] = test system: non-diabetic animals; conditions: previous reports (9); cited from earlier work
[7] = test system: miR-221/222; conditions: diabetic mice; 3 d post-injury or sham
Protocol: FIG. 6. […] Femoral artery wire injury or sham procedure was performed in the non-diabetic (ND) and diabetic (DM) mice and miR-221 levels were measured 3d post-injury. A group of MF-12 mice (Sham+EI) received a MEK1 inhibitor (U0126, […]). Data represent the mean±SEM.

[8] = test system: miR-221/222; experiment: miR-221/222 levels in internal mammary arteries of coronary artery bypass patients by real-time PCR; type: in vivo, human; conditions: diabetic patients currently taking metformin (DMMet+), coronary artery bypass surgery
Protocol: FIG. 13. miR-221/222 are reduced in the vasculature of diabetic patients taking the AMPK agonist metformin. miR-221/222 levels were measured using real-time PCR methods in the internal mammary arteries of non-diabetic (ND), diabetic subjects currently taking metformin (DMMet+), and diabetic subjects not taking metformin (DMMet−) undergoing coronary artery bypass surgery. […] Data represent the mean±SEM.

Molecule: 2′OMe-miR-222: silencing RNA, 2′-O-methylated, directly inhibiting miR-221/222; sequence 5′-ACCCAGUAGCCAGAUGUAGCU-3′ (likely SEQ ID NO 4) (all 2'-O-methyl, backbone not given here)
- intimal thickening ([1]; diabetic mice, Pluronic gel on wire injured femoral artery, 14 days): effective at reducing intimal thickening in the diabetic mice to levels similar to that of normal mice
- miR-221/222 levels in the vasculature [2]: reduces miR-221/222 levels back to normal
- p27Kip1 protein levels [3]: restores levels of p27^Kip1 protein to normal levels

Molecule: NC(=O)c1ncn([C@@H]2O[C@H](CO)[C@@H](O)[C@H]2O)c1N [AICAR]
- miR-221/222 levels in VSMCs [4]: effective in reducing miR-221/222 in the VSMCs from diabetic mice to levels similar to VSMCs from non-diabetic mice

Molecule: COc1cccc(-c2cc(=O)c3ccccc3o2)c1N [PD98059]
- accelerated degradation (half-life) of p27Kip1 mRNA [5]: effective at blocking the accelerated degradation
- cell proliferative aspect of intimal thickening following arterial injury [6]: not effective

Molecule: N#CC(=C(/N)Sc1ccccc1N)/C(C#N)=C(\N)Sc1ccccc1N [U0126]
- intimal hyperplasia following wire injury ([1]; diabetic mice, U0126 7.5 mg/kg/d): reduces intimal hyperplasia
- sensitivity of intimal thickening to rapamycin ([1]; diabetic mice, U0126 7.5 mg/kg/d co-administered with local rapamycin 100 μg, 7.5 mg/kg/day): restores sensitivity to rapamycin; also recorded: restores the ability of rapamycin to intimal thickening
- intimal thickening (intima:media ratio) ([1]; non-diabetic mice, U0126 7.5 mg/kg/d co-administered with local rapamycin): minimal effects
- increase in miR-221/222 levels in the vasculature [7]: blocked

Molecule: CN(C)C(=N)N=C(N)N [metformin]
- miR-221/222 levels in VSMCs [4]: effective in reducing miR-221/222 in the VSMCs from diabetic mice to levels similar to VSMCs from non-diabetic mice
- miR-221/222 levels in internal mammary arteries [8]: normal levels

Source: patent US9522130B2, “Use of miR-221 and 222 lowering agents to prevent cardiovascular disease in diabetic subjects” (priority 2013, dated 2016)
